Holding throughout (test): DTP human tumour cell line panel, 48 h
Experiment [1] deals with ACHN renal.
Experiment [2] deals with DU-145 prostate.
For experiment [3], the system named is SW-620 colon.
The subject of experiment [4] is OVCAR-3 ovarian.
Experiment [5] deals with TK-10 renal.
The test system of experiment [6] is KM12 colon.
For experiment [7], the system named is NCI/ADR-RES ovarian.
Experiment [8] relates to NCI-H226 lung.
For experiment [9], the system named is HOP-62 NSCLC.
Experiment [10] concerns T-47D breast.

Values joined by “and” are separate entries in the source; they are usually repeats but may differ in a detail not shown here. Equal values may be shown once.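 A five-concentration, 48-hour dose response in 96-well plates underlies each endpoint, interpolated linearly between surrounding concentrations. GI50 is the concentration that inhibits growth by half. TGI marks complete inhibition of growth.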

Take `N#Cc1cnn(C(=O)c2nn(-c3ccc(Cl)cc3)cc2O)c1N`: the GI50 in experiment [1] was 0.322 µM; in experiment [2] it was 0.57 µM; in experiment [3], 0.521 µM; in [4] it was 0.545 µM; in [5] it was 0.267 µM; in experiment [6], 0.374 µM. In addition, the GI50 in [7] was 0.401 µM; in [8], 0.349 µM; in [9], 0.392 µM; in experiment [10] it was 0.294 µM. Moreover, the TGI in experiment [1] turned out to be 12.5 µM; in experiment [2], 28.4 µM; in [3] it was 21 µM; in experiment [4], 8.44 µM; in experiment [5] it was 7.34 µM; in experiment [6], 22.2 µM. The concentration for total growth inhibition (TGI) in [7] was 8.78 µM; in experiment [8], 7.45 µM; in experiment [9], 17.4 µM; in [10] it was 19.1 µM.
As to `C=C(CN1CCN(c2cc(C(F)(F)F)cc(C(F)(F)F)c2)CC1)c1ccc(C(=O)Nc2ccccc2N)cc1`, the GI50 in experiment [1] was 5.81 µM; in experiment [2] it was 5.4 µM; in experiment [3], 6.95 µM; in experiment [4], 3.18 µM; in experiment [5] it was 12.3 µM; in experiment [6], 3.47 µM. Further, the GI50 in experiment [7] was 5.82 µM; in [8], 9.89 µM; in experiment [9] it was 16.2 µM; in [10] it was 8.97 µM. In addition, the total growth inhibition concentration (TGI) in [1] is above 100 µM; in experiment [2], above 100 µM; in [3], 34.9 µM; in experiment [4], 21.2 µM; in experiment [5], above 100 µM; in experiment [6] it was 21.8 µM. Besides, the TGI in experiment [7], in experiment [8], in [9] and in experiment [10] was above 100 µM each time.
For the molecule `CN(N=O)c1ccc(/C=C/c2ccnc3ccccc23)cc1`, the TGI in experiment [1], in experiment [2], in [3], in [4], in experiment [5] and in [6] was above 100 µM throughout. Also, the TGI in experiment [7], in experiment [8], in experiment [9] and in experiment [10] was above 100 µM throughout.
Consider `COc1cc(C2c3cc4c(cc3[C@@H](Nc3ccc(F)cc3)C3COC(=O)[C@H]23)OCO4)cc(OC)c1O` (some centres undefined), for which the GI50 was 0.326 µM in [1], 0.859 µM in [3], 0.529 µM in experiment [8] and 0.416 µM in experiment [9]. The TGI in experiment [1] was found to be 3.39 µM; in experiment [2], 8.89 µM; in experiment [3], 44.8 µM; in [4] it was 29.5 µM; in experiment [5], 14.8 µM; in [6] it was 13.5 µM. Moreover, the TGI in [7] was 45.7 µM; in [8], 0.985 µM and 5.18 µM; in [9], 3.3 µM; in experiment [10] it was 61.3 µM.
On to `O=C(NCCN1CCOCC1)c1cc2c(Oc3ccc(NC(=O)C4(C(=O)Nc5ccc(F)cc5)CC4)cc3)ccnc2[nH]1`, for which the GI50 in [1] is 7.84 µM; in experiment [2] it was 10.6 µM; in experiment [3] it was 15.3 µM; in experiment [4], 19 µM; in [5], 7.56 µM; in experiment [6], 0.412 µM. The GI50 is 22.9 µM in experiment [7], 3.73 µM in experiment [8], 3.22 µM in experiment [9] and 4.43 µM in experiment [10]. In addition, the concentration for total growth inhibition (TGI) in experiment [1] is above 100 µM; in experiment [2], above 100 µM; in [3], above 100 µM; in [4], above 85.7 µM; in [5] it was 41 µM; in [6] it was above 40.9 µM. The TGI in experiment [7] is above 100 µM; in [8] it was 50.3 µM; in experiment [9] it was 31.5 µM; in experiment [10], 46 µM.
`Cc1ccc(C)c(N2CCN(c3ccncc3N)CC2)c1`: the GI50 in experiment [1] is 11.9 µM; in experiment [2], 17.9 µM; in experiment [3], 5.13 µM; in experiment [4] it was 12.2 µM; in experiment [5], 16.7 µM; in [6], 15.1 µM. The GI50 in [7] was 14.5 µM; in experiment [8], 17.2 µM; in experiment [9], 26.9 µM; in experiment [10], 3.23 µM. Further, the TGI in experiment [1] was above 100 µM; in experiment [2], 64.8 µM; in experiment [3], 24.6 µM; in experiment [4] it was 58.8 µM; in experiment [5], 49.8 µM; in experiment [6], 47.1 µM. Moreover, the TGI in [7] was above 100 µM; in [8], 67 µM; in [9], above 100 µM; in experiment [10], 30.3 µM.
For `Nc1nc(SCC#CCCl)c2[nH]cnc2n1`, the GI50 was 3.7 µM in experiment [1]; 4.39 µM in experiment [2]; 4.1 µM in experiment [3]; 3.27 µM in [4]; 1.87 µM in experiment [5]; 6.14 µM in experiment [6]. For the same molecule, the GI50 was 6.16 µM in experiment [7], 8.02 µM in experiment [8], 9.94 µM in experiment [9] and 5.26 µM in experiment [10]. Moreover, the TGI in experiment [1] was determined as 15 µM; in experiment [2] it was 15.9 µM; in [3] it was 17.5 µM; in [4] it was 10.9 µM; in [5], 11.1 µM; in [6], 18.6 µM. Besides, the TGI in experiment [7] amounted to 30.4 µM; in [8], 26.7 µM; in [9], 24.3 µM; in [10] it was 21.1 µM.
As for `COc1ccc2c(Cl)cc(NC(=S)Nc3ccccc3)nc2c1`, the total growth inhibition concentration (TGI) in experiment [1] is above 100 µM; in [2], above 100 µM; in [3] it was 69.1 µM; in experiment [4], above 100 µM; in experiment [5], above 100 µM; in experiment [6], 37.9 µM. In addition, the TGI in experiment [7] was 54.1 µM; in experiment [8], above 100 µM; in experiment [9], above 100 µM; in [10], 45.3 µM.
`COc1ccc2c(c1O)[C@@]13CCCC=C1[C@@H](C2)N(C)CC3`: the total growth inhibition concentration (TGI) in [1], in experiment [2], in experiment [3], in experiment [4], in experiment [5] and in experiment [6] was above 100 µM in each case. The TGI in experiment [7], in experiment [8], in experiment [9] and in [10] was above 100 µM each time.

(Values after PubChem BioAssay (NCI).)
